According to patent publication US20110201818A1, “POLO-LIKE KINASE INHIBITORS” (TAKEDA PHARMACEUTICAL COMPANY LIMITED, priority 2007, published 2011):
Where two headings read alike, the source gives them in different places.

Molecular target: T1, human PLK1 (Homo sapiens, UniProt P53350)
T1 construct: FLAG (DYKDDDDK) (N); made in house; host or cells: Sf21 insect cells, recombinant baculovirus (pFASTBAC1, Bac-to-Bac)
Assay: PLK1 in vitro enzymatic activity assay (phosphorylation of alpha casein by recombinant PLK1)
Format: biochemical
Protocol: PCR was performed using the vector as a template. […] After XbaI and XhoI digestion of the PCR product, the fragment was subcloned into pFASTBAC1 (Invitrogen, USA). Recombinant baculoviruses were prepared according to the procedure of the Bac-to-Bac baculovirus expression system (Invitrogen, USA). Sf21 cells were purchased from Invitrogen and grown in Sf-900 II SFM medium containing 10% fetal bovine serum, 50 μg/mL gentamicin and 0.1% pluronic F-68 (Invitrogen, USA) at 28° C. For preparation of PLK1 enzyme, Sf21 cells were infected with recombinant baculoviruses and cultured at 28° C. for 72 h.
The inhibition of PLK1 by the compounds was determined with the following assay that measures the phosphorylation of alpha casein by recombinant PLK1. Kinase reactions were performed at room temperature for 40 min in the kinase reaction buffer (25 mmol/L HEPES, pH 7.5, 10 mmol/L magnesium acetate, 1 mmol/L dithiothreitol) containing 50 ng PLK1 enzyme, 0.1 μCi [γ-^32P]ATP, 500 nmol/L ATP and 3 μg alpha casein (MP Biomedicals Inc., USA) in a final volume of 50 μL. The incubation was terminated by the addition of 10% trichloroacetic acid (Wako, Japan). Phosphorylated proteins were filtrated in GF/C filter plates (Packard, USA) with a Cell harvester (Packard, USA) and washed out free [γ-^32P]-ATP with 250 mmol/L phosphoric acid. Then, the plates were air dried for 60 min at 45° C., followed by the addition of 20 μL of MicroScint-O (Packard, USA). The radioactivity was counted by a Top-count scintillation counter (Packard, USA).

[1] = recombinant FLAG-tagged PLK1, alpha casein substrate, 500 nmol/L ATP, 40 min at room temperature, read-out: pIC50 (PLK1) (converted)

T1 sequence (P53350 with tags, fused parts or gaps): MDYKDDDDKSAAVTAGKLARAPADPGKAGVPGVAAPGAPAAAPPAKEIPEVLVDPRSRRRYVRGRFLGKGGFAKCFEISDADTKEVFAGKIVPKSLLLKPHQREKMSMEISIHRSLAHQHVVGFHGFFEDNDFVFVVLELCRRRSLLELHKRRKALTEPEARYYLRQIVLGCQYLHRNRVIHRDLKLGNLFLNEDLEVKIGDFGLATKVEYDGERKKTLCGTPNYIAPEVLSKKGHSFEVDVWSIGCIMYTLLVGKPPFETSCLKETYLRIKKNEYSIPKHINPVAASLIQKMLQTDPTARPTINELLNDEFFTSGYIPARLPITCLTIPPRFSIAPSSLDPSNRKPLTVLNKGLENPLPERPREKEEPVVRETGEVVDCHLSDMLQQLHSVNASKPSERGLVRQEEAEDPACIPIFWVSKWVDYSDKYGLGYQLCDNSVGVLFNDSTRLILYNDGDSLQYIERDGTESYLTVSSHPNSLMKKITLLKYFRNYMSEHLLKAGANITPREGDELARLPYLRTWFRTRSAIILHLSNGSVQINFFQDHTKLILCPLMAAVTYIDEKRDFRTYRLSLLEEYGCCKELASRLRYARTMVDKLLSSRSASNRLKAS

Row | SMILES | IC50 [1] [nM] | IC50 [nM]
1 | COc1cc(C(=O)NN2CCOCC2)ccc1Nc1ncc2c(n1)N(C1CCCCC1)CC(F)(F)C(=O)N2C [Compound 65, 4-(9-cyclohexyl-7,7-difluoro-5-methyl-6-oxo-6,7,8,9-tetrahydro-5H-pyrimido[4,5-b][1,4]diazepin-2-ylamino)-3-methoxy-N-morpholinobenzamide] | ≤ 2 | 
2 | COc1cc(C(=O)NC2CCOCC2)ccc1Nc1ncc2c(n1)N(C1CCCCC1)CC(F)(F)C(=O)N2C [Compound 66, 4-(9-cyclohexyl-7,7-difluoro-5-methyl-6-oxo-6,7,8,9-tetrahydro-5H-pyrimido[4,5-b][1,4]diazepin-2-ylamino)-3-methoxy-N-(tetrahydro-2H-pyran-4-yl)benzamide] | ≤ 2 | 
3 | COc1cc(C(=O)NN2CCCC2)ccc1Nc1ncc2c(n1)N(C1CCCCC1)CC(F)(F)C(=O)N2C [Compound 67, 4-(9-cyclohexyl-7,7-difluoro-5-methyl-6-oxo-6,7,8,9-tetrahydro-5H-pyrimido[4,5-b][1,4]diazepin-2-ylamino)-3-methoxy-N-(pyrrolidin-1-yl)benzamide] | ≤ 2 | 
4 | COc1cc(C(=O)NC2CN(C(C)=O)C2)ccc1Nc1ncc2c(n1)N(C1CCCCC1)CC(F)(F)C(=O)N2C [Compound 69, N-(1-acetylazetidin-3-yl)-4-(9-cyclohexyl-7,7-difluoro-5-methyl-6-oxo-6,7,8,9-tetrahydro-5H-pyrimido[4,5-b][1,4]diazepin-2-ylamino)-3-methoxybenzamide] | ≤ 2 | 
5 | COc1cc(C(=O)NC2CCNCC2)ccc1Nc1ncc2c(n1)N(C1CCCCC1)CC(F)(F)C(=O)N2C [Compound 70, 4-(9-cyclohexyl-7,7-difluoro-5-methyl-6-oxo-6,7,8,9-tetrahydro-5H-pyrimido[4,5-b][1,4]diazepin-2-ylamino)-3-methoxy-N-(piperidin-4-yl)benzamide] | ≤ 2 | 
6 | COc1cc(C(=O)N[C@H]2CCCN(C)C2)ccc1Nc1ncc2c(n1)N(C1CCCCC1)CC(F)(F)C(=O)N2C [Compound 74, (S)-4-(9-cyclohexyl-7,7-difluoro-5-methyl-6-oxo-6,7,8,9-tetrahydro-5H-pyrimido[4,5-b][1,4]diazepin-2-ylamino)-3-methoxy-N-(1-methylpiperidin-3-yl)benzamide] | ≤ 2 | 
7 | COc1cc(C(=O)NN2CCNCC2)ccc1Nc1ncc2c(n1)N(C1CCCCC1)CC(F)(F)C(=O)N2C [Compound 77, 4-(9-cyclohexyl-7,7-difluoro-5-methyl-6-oxo-6,7,8,9-tetrahydro-5H-pyrimido[4,5-b][1,4]diazepin-2-ylamino)-3-methoxy-N-(piperazin-1-yl)benzamide] | ≤ 2 | 
8 | CCN1CCN(NC(=O)c2ccc(Nc3ncc4c(n3)N(C3CCCCC3)CC(F)(F)C(=O)N4C)c(OC)c2)CC1 [Compound 78, 4-(9-cyclohexyl-7,7-difluoro-5-methyl-6-oxo-6,7,8,9-tetrahydro-5H-pyrimido[4,5-b][1,4]diazepin-2-ylamino)-N-(4-ethylpiperazin-1-yl)-3-methoxybenzamide] |  | ≤ 2
9 | COc1cc(C(=O)NN2CCN(C(C)C)CC2)ccc1Nc1ncc2c(n1)N(C1CCCCC1)CC(F)(F)C(=O)N2C [Compound 79, 4-(9-cyclohexyl-7,7-difluoro-5-methyl-6-oxo-6,7,8,9-tetrahydro-5H-pyrimido[4,5-b][1,4]diazepin-2-ylamino)-N-(4-isopropylpiperazin-1-yl)-3-methoxybenzamide] | ≤ 2 | 
10 | COc1cc(C(=O)NN2CCN(CC3CC3)CC2)ccc1Nc1ncc2c(n1)N(C1CCCCC1)CC(F)(F)C(=O)N2C [Compound 80, 4-(9-cyclohexyl-7,7-difluoro-5-methyl-6-oxo-6,7,8,9-tetrahydro-5H-pyrimido[4,5-b][1,4]diazepin-2-ylamino)-N-(4-(cyclopropylmethyl)piperazin-1-yl)-3-methoxybenzamidemethoxybenzamide] | ≤ 2 | 
11 | COc1cc(C(=O)NN2CCN(C(=O)CN(C)C)CC2)ccc1Nc1ncc2c(n1)N(C1CCCCC1)CC(F)(F)C(=O)N2C [Compound 81, 4-(9-cyclohexyl-7,7-difluoro-5-methyl-6-oxo-6,7,8,9-tetrahydro-5H-pyrimido[4,5-b][1,4]diazepin-2-ylamino)-N-(4-(2-(dimethylamino)acetyl)piperazin-1-yl)-3-methoxybenzamide] | ≤ 2 | 
12 | COc1cc(C(=O)NC2CCN(C)CC2)ccc1Nc1ncc2c(n1)N(C1CC[C@@H](C)C1)CC(F)(F)C(=O)N2C (stereo partly drawn) [Compound 83, 4-(7,7-difluoro-5-methyl-9-((3R)-3-methylcyclopentyl)-6-oxo-6,7,8,9-tetrahydro-5H-pyrimido[4,5-b][1,4]diazepin-2-ylamino)-3-methoxy-N-(1-methylpiperidin-4-yl)benzamide] | ≤ 2 | 
13 | CCC1(F)CN(C2CCCC2)c2nc(Nc3ccc(C(=O)NC4CN(C)C4)cc3OC)ncc2N(C)C1=O (centres unmarked) [Compound 95, 4-(9-Cyclopentyl-7-ethyl-7-fluoro-5-methyl-6-oxo-6,7,8,9-tetrahydro-5H-pyrimido[4,5-b][1,4]diazepin-2-ylamino)-3-methoxy-N-(1-methylazetidin-3-yl)benzamide] | ≤ 2 | 
14 | CCC1(F)CN(C2CCCCC2)c2nc(Nc3ccc(C(=O)NC4CN(C)C4)cc3OC)ncc2N(C)C1=O (centres unmarked) [Compound 97, 4-(9-Cyclohexyl-7-ethyl-7-fluoro-5-methyl-6-oxo-6,7,8,9-tetrahydro-5H-pyrimido[4,5-b][1,4]diazepin-2-ylamino)-3-methoxy-N-(1-methylazetidin-3-yl)benzamide] | > 2 | 

Further lines, with some results ahead:

Row | IC50 [1] [nM] | SMILES | IC50 [nM]
15 | ≤ 2 | COc1cc(C(=O)N[C@@H]2CCCN(C)C2)ccc1Nc1ncc2c(n1)N(C1CCCCC1)CC(F)(F)C(=O)N2C [Compound 75, (R)-4-(9-cyclohexyl-7,7-difluoro-5-methyl-6-oxo-6,7,8,9-tetrahydro-5H-pyrimido[4,5-b][1,4]diazepin-2-ylamino)-3-methoxy-N-(1-methylpiperidin-3-yl)benzamide] | 
16 | ≤ 2 | COc1cc(C(=O)NC2CC2)ccc1Nc1ncc2c(n1)N(C1CCCCC1)CC(F)(F)C(=O)N2C [Compound 76, 4-(9-cyclohexyl-7,7-difluoro-5-methyl-6-oxo-6,7,8,9-tetrahydro-5H-pyrimido[4,5-b][1,4]diazepin-2-ylamino)-N-cyclopropyl-3-methoxybenzamide] | 
17 | ≤ 2 | COc1cc(C(=O)NC2CCN(C)CC2)ccc1Nc1ncc2c(n1)N(C1CCCC1)CC(F)C(=O)N2C (centres unmarked) [Compound 84, 4-(9-cyclopentyl-7-fluoro-5-methyl-6-oxo-6,7,8,9-tetrahydro-5H-pyrimido[4,5-b][1,4]diazepin-2-ylamino)-3-methoxy-N-(1-methylpiperidin-4-yl)benzamide] | 
18 | > 2 | COc1cc(C(=O)NC2CCN(C)CC2)ccc1Nc1ncc2c(n1)N(C1CCCC1)CC(F)(C(F)(F)F)C(=O)N2C (centres unmarked) [Compound 85, 4-(9-cyclopentyl-7-fluoro-5-methyl-6-oxo-7-(trifluoromethyl)-6,7,8,9-tetrahydro-5H-pyrimido[4,5-b][1,4]diazepin-2-ylamino)-3-methoxy-N-(1-methylpiperidin-4-yl)benzamide] | 
19 | ≤ 2 | COc1cc(C(=O)NC2CCN(C)CC2)ccc1Nc1ncc2c(n1)N(C1CCCC1)CC(C)(F)C(=O)N2C (centres unmarked) [Compound 87, 4-(9-cyclopentyl-7-fluoro-5,7-dimethyl-6-oxo-6,7,8,9-tetrahydro-5H-pyrimido[4,5-b][1,4]diazepin-2-ylamino)-3-methoxy-N-(1-methylpiperidin-4-yl)benzamide] | 
20 | ≤ 2 | COc1cc(C(=O)NC2CN(C)C2)ccc1Nc1ncc2c(n1)N(C1CCCC1)CC(C)(F)C(=O)N2C (centres unmarked) [Compound 88, 4-(9-Cyclopentyl-7-fluoro-5,7-dimethyl-6-oxo-6,7,8,9-tetrahydro-5H-pyrimido[4,5-b][1,4]diazepin-2-ylamino)-3-methoxy-N-(1-methylazetidin-3-yl)benzamide] | 
21 | ≤ 2 | COc1cc(C(=O)NC2CCN(C)CC2)ccc1Nc1ncc2c(n1)N(C1CCCCC1)CC(C)(F)C(=O)N2C (centres unmarked) [Compound 89, 4-(9-Cyclohexyl-7-fluoro-5,7-dimethyl-6-oxo-6,7,8,9-tetrahydro-5H-pyrimido[4,5-b][1,4]diazepin-2-ylamino)-3-methoxy-N-(1-methylpiperidin-4-yl)benzamide] | 
22 | ≤ 2 | COc1cc(C(=O)NC2CN(C)C2)ccc1Nc1ncc2c(n1)N(C1CCCCC1)CC(C)(F)C(=O)N2C (centres unmarked) [Compound 90, 4-(9-Cyclohexyl-7-fluoro-5,7-dimethyl-6-oxo-6,7,8,9-tetrahydro-5H-pyrimido[4,5-b][1,4]diazepin-2-ylamino)-3-methoxy-N-(1-methylazetidin-3-yl)benzamide] | 
23 | > 2 | CCC1(F)CN(C2CCCCC2)c2nc(Nc3ccc(C(=O)NC4CCN(C)CC4)cc3OC)ncc2N(C)C1=O (centres unmarked) [Compound 96, 4-(9-Cyclohexyl-7-ethyl-7-fluoro-5-methyl-6-oxo-6,7,8,9-tetrahydro-5H-pyrimido[4,5-b][1,4]diazepin-2-ylamino)-3-methoxy-N-(1-methylpiperidin-4-yl)benzamide] | 
